Experimental data from publication PMC6934184, “Selective DNA-PKcs inhibition extends the therapeutic index of localized radiotherapy and chemotherapy” (The Journal of Clinical Investigation, 2019).

Biological target: T1, ALK L1196M (Homo sapiens, UniProt Q9UM73, L1196M)
T1 construct: purchased Thermo Fisher Scientific (Life Technologies) SelectScreen
Experiment: SelectScreen LanthaScreen
Type: binding
Conditions: read-out: % displacement
Method in brief: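 NU5455 was profiled across the SelectScreen Broad panel of kinase activity and binding assays. Z'LYTE reactions such as CSF1R ran at apparent Km ATP, while the Adapta CAMK1 assay used ATP listed as 10. Values are given as percent.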

T1 sequence (Q9UM73 19-1620 L1196M): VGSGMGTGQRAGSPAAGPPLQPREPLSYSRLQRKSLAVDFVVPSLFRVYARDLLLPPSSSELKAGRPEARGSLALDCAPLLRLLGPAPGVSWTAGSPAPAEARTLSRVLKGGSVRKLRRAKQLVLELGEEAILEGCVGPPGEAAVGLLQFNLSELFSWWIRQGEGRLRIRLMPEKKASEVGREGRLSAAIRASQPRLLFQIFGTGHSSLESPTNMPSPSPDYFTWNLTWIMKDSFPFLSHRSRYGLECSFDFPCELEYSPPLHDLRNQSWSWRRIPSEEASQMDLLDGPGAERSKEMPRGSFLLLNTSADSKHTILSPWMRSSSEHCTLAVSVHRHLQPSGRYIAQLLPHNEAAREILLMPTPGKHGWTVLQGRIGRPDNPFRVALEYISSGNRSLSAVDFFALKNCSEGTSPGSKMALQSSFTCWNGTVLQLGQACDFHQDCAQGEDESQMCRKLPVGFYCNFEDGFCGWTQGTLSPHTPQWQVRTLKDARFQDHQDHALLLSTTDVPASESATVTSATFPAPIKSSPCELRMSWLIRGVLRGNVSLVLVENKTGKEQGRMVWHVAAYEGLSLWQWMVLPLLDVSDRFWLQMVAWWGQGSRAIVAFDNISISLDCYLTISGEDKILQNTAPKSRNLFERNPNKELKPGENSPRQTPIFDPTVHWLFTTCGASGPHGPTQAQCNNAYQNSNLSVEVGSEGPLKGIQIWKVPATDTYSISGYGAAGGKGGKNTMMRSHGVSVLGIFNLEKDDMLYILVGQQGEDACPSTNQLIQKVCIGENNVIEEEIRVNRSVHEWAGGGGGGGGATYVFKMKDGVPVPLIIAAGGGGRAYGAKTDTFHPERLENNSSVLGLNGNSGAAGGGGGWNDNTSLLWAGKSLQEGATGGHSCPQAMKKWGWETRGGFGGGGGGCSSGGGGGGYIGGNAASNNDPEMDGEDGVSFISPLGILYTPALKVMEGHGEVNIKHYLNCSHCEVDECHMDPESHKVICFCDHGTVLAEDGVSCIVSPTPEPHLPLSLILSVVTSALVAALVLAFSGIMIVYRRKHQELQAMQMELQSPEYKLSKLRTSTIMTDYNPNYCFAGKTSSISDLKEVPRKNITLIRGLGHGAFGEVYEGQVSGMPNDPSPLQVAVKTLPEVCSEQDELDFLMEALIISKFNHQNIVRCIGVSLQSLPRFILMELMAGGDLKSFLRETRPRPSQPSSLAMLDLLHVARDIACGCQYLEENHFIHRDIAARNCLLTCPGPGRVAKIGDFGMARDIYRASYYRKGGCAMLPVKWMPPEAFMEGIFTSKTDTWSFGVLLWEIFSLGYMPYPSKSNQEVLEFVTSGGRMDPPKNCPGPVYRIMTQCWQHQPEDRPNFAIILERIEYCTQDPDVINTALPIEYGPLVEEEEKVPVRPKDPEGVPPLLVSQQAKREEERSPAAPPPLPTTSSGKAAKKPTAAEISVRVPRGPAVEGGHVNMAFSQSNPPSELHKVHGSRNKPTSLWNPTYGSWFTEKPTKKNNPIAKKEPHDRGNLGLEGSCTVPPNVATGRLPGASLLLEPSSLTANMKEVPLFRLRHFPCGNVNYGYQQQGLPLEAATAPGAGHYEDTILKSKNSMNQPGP

SMILES: CN(C(=O)CN1CCOCC1)c1ccc2sc3c(-c4cccc5c(=O)cc(N6CC7CCC(C6)O7)oc45)cccc3c2c1 [NU5455]
- inhibition at 1 µM: -1.7%
